{
  "source": "ChEMBL document CHEMBL1201862",
  "about": "“PubChem BioAssay data set” (2004)",
  "key": {"[1]": {"target": "Genome polyprotein (dengue virus type 2, UniProt P29990)", "sequence (P29990 2492-3391 limits assumed)": "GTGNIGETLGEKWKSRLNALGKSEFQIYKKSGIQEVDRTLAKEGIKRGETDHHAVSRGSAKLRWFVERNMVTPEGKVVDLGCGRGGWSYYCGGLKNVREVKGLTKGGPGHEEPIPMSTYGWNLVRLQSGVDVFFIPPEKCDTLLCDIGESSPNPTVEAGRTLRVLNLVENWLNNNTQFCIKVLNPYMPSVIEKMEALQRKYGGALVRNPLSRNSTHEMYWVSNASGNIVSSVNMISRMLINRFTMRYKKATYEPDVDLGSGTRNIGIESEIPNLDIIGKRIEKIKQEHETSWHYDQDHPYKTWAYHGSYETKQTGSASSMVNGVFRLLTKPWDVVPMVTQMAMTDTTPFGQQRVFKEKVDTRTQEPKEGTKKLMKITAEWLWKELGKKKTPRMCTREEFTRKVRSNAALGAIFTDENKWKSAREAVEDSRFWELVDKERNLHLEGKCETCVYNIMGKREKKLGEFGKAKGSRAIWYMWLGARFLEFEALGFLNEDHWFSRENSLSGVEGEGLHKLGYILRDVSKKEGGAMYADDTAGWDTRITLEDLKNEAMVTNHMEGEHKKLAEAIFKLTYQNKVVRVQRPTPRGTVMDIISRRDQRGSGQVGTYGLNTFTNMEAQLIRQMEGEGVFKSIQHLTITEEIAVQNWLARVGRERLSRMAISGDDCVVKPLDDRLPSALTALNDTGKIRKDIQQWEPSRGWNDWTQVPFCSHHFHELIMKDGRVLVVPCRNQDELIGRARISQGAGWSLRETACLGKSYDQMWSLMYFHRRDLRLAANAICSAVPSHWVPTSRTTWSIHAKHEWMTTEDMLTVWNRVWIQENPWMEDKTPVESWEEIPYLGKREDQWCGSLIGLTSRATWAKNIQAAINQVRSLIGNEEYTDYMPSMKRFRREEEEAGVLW", "assay": "flavivirus cap methylation enzyme inhibition – biochemical, confirmation dose response, primary screen (AID 588689)", "type": "functional"}, "[2]": {"target": "T1, Heat shock factor protein 1 (Mus musculus, UniProt P38532)", "T1 sequence (P38532 whole entry)": "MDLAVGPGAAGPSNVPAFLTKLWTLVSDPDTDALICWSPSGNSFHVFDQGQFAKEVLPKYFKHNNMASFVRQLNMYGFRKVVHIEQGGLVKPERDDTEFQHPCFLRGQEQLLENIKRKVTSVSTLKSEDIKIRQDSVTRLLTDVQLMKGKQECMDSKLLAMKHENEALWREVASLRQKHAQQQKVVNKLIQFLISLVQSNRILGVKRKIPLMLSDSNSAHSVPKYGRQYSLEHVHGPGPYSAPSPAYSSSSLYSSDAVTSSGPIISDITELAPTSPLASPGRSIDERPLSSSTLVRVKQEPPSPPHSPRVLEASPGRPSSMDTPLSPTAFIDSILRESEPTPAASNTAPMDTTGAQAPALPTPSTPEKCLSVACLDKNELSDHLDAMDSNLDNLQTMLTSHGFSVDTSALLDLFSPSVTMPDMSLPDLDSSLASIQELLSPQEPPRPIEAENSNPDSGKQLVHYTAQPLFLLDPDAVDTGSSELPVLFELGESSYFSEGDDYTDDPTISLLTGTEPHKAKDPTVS", "assay": "enhancement of HSF1-driven luciferase signal – cell-based, NIH3T3, luminescence, dose retest, confirmation (AID 435004);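 also: stress induced by proteasome inhibitor MG132 added 30 min after compound; actives raise luminescence as potentiators of the MG132 stress response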", "type": "functional"}, "[3]": {"target": "T2, Apoptotic protease-activating factor 1 (Homo sapiens, UniProt O14727)", "T2 sequence (O14727 whole entry)": "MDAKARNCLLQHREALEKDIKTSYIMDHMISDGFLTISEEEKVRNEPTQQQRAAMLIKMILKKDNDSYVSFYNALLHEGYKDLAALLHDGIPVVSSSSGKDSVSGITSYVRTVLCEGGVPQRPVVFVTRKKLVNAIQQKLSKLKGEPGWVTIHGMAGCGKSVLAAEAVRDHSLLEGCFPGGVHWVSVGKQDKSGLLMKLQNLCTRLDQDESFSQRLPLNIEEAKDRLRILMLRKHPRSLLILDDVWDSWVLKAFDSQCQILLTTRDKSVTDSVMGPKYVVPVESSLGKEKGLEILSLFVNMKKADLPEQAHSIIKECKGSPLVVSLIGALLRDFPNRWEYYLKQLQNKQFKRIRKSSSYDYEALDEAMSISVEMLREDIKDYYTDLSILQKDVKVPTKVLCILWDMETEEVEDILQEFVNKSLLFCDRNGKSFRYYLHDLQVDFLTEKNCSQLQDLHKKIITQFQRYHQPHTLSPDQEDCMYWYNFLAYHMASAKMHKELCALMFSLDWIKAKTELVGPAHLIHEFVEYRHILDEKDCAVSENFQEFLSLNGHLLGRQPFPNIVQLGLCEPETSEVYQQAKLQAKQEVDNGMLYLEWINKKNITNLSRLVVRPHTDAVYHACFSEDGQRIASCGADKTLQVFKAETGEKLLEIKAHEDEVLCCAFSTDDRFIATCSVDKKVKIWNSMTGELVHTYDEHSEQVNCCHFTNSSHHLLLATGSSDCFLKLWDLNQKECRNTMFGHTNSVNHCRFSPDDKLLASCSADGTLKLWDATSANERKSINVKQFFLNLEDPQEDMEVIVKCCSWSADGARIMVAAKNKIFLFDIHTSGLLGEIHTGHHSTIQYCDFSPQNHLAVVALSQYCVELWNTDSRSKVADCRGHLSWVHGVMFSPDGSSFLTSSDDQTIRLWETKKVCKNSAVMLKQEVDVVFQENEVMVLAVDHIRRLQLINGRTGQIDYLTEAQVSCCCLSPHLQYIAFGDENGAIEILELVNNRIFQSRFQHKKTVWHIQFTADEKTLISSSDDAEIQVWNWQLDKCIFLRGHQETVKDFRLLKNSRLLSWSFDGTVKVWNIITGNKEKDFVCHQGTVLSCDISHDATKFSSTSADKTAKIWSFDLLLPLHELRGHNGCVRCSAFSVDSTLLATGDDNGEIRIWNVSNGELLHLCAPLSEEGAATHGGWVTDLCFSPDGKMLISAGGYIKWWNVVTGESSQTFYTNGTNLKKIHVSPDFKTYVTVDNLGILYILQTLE", "type": "functional"}, "[4]": {"target": "Voltage-gated inwardly rectifying potassium channel KCNH2 (Homo sapiens, UniProt Q12809)", "sequence (Q12809 whole entry)": "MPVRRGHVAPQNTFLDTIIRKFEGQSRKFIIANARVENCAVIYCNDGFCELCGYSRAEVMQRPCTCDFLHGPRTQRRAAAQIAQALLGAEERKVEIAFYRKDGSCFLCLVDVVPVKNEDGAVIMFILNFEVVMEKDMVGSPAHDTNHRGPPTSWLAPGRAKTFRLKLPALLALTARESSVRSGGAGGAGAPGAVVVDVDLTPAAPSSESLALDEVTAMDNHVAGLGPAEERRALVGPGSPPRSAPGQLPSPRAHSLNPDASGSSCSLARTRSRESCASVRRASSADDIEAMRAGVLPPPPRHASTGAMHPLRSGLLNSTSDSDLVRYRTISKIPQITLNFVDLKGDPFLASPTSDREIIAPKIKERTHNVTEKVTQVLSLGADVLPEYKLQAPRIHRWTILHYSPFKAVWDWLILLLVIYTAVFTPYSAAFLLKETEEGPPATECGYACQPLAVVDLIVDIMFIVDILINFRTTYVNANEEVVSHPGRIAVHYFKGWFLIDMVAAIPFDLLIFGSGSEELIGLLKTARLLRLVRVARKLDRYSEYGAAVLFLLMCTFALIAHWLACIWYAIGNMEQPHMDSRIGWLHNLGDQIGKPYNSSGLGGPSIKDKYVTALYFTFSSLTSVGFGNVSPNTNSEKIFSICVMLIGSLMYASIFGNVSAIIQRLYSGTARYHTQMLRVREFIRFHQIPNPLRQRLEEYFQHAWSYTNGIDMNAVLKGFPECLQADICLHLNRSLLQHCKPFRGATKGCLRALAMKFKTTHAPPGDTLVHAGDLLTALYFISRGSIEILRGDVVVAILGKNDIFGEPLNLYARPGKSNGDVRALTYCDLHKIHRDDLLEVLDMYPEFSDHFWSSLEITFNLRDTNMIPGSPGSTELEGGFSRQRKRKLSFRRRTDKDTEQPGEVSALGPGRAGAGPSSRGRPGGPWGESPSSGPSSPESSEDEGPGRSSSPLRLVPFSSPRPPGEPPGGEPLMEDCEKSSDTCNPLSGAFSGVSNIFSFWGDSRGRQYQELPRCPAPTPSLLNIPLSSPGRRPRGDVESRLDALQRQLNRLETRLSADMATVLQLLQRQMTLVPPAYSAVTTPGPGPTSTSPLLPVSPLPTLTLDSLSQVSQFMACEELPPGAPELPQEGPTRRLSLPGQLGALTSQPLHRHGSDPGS", "details": "Potency"}, "[5]": {"target": "Cytochrome P450 3A4 (Homo sapiens, UniProt P08684)", "sequence (P08684 whole entry)": "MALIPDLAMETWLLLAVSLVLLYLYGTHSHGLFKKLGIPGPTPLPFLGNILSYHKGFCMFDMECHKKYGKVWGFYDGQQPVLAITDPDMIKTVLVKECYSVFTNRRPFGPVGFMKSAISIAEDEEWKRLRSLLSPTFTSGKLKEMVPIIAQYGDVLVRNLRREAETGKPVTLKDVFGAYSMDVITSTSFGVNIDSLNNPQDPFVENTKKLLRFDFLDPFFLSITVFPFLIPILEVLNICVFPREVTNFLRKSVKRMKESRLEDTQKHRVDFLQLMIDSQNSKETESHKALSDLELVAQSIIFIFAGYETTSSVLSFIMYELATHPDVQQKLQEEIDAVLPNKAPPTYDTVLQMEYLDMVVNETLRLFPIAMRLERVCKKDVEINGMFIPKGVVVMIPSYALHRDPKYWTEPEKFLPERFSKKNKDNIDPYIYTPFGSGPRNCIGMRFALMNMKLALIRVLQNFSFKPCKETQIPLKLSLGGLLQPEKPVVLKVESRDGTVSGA"}, "[6]": {"target": "T3, Replicative DNA helicase DnaB (Mycobacterium tuberculosis, UniProt P9WMR3)", "T3 sequence (P9WMR3 whole entry)": "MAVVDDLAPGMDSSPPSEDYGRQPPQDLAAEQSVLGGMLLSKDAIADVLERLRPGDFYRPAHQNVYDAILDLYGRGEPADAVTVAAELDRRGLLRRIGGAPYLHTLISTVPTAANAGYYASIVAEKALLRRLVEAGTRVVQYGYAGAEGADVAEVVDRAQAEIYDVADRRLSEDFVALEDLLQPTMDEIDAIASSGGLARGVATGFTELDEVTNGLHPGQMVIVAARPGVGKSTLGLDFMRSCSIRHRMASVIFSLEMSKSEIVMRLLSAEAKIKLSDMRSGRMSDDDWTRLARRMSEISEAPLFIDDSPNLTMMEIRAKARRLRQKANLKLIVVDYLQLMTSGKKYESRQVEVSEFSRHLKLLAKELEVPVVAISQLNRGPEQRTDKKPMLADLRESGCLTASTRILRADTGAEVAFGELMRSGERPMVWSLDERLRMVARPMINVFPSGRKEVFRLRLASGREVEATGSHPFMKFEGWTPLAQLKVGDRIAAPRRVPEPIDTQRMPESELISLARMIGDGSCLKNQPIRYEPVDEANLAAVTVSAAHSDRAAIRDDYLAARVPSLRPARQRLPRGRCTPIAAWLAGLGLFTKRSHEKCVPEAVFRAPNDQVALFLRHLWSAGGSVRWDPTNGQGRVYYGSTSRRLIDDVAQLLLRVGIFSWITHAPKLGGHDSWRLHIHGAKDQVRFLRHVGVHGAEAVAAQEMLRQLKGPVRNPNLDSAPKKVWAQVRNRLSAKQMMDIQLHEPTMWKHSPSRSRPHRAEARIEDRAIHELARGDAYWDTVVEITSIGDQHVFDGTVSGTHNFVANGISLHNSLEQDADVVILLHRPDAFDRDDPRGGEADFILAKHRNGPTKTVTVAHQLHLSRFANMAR", "assay": "DnaB intein splicing inhibitors, dose response, biochemical, cell-free fluorescence (AID 449749)", "type": "functional"}, "[7]": {"target": "T4, Tyrosyl-DNA phosphodiesterase 2 (Homo sapiens, UniProt O95551)", "T4 sequence (O95551 whole entry)": "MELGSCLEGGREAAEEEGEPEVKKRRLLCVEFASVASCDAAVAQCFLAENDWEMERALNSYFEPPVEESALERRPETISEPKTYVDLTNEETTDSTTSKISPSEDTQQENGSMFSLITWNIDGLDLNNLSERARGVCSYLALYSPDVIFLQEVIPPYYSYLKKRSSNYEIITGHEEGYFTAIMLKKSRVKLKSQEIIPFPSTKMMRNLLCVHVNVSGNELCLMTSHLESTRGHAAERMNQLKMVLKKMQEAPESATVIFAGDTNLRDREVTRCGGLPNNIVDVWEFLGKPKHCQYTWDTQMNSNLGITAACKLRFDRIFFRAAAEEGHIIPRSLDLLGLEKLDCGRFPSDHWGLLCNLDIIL", "assay": "potency against TDP2 phosphodiesterase activity – biochemical, epi absorbance, IC50, dose response (AID 743297)"}, "[8]": {"target": "T5, Protein RecA (Mycobacterium tuberculosis, UniProt P9WHJ3)", "T5 sequence (P9WHJ3 whole entry)": "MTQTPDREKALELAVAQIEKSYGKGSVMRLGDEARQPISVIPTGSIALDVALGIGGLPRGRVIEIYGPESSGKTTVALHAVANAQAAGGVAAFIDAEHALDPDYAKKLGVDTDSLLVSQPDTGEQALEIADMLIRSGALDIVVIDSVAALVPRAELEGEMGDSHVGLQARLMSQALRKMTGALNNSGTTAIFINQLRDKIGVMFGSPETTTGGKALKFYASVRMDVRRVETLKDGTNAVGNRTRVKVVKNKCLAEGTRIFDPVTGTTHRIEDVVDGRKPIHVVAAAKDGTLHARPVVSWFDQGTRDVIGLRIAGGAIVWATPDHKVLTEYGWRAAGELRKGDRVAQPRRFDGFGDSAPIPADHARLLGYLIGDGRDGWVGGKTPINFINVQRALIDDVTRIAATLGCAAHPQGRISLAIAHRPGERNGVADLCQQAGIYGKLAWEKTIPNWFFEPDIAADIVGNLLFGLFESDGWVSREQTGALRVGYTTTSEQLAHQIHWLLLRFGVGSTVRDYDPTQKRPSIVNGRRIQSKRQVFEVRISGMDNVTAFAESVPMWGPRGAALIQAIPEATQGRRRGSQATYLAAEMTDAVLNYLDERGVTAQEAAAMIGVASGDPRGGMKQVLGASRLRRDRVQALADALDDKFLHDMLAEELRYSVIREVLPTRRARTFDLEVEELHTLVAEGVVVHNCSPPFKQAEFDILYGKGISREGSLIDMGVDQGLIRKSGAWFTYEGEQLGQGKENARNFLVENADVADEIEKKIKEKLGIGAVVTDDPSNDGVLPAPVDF", "assay": "Fluorescence Cell-Free Homogeneous Dose Retest to Identify Inhibitors of RecA-Intein Splicing Activity. [Related pubchem assays (depositor defined):AID2097, AID2223, AID489010, AID492950]", "type": "functional"}, "[9]": {"test_system": "BJ", "assay": "BJ-TERT-LT-ST fibroblast viability loss – cell-based, RAS-independent, luminescence, dose response (AID 1935);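 also: BJ fibroblasts immortalized with TERT plus LT and ST oncogenes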", "type": "functional", "details": "Homo sapiens"}, "[10]": {"test_system": "BJ", "assay": "cells", "type": "functional, cell-based", "details": "Homo sapiens"}, "[11]": {"test_system": "BJ", "assay": "growth inhibition of engineered Ras-driven BJ cells – cell-based, alamar blue fluorescence, cherrypicked samples, dose response (AID 2631);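 also: confirmatory dose-response assay in RAS-dependent BJ fibroblasts engineered with TERT, LT and ST, with cytotoxicity read by fluorescence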", "type": "functional", "details": "Homo sapiens"}, "[12]": {"test_system": "BJ", "assay": "BJ-TERT fibroblast viability loss – cell-based, RAS-independent, luminescence, dose response (AID 1933)", "type": "functional", "details": "Homo sapiens"}, "[13]": {"assay": "DRD fibroblast viability loss – cell-based, non-viral oncogenic, luminescence, dose response (AID 1934)", "type": "functional", "details": "Homo sapiens"}},
  "note": "Counter-ions that a name gives are not always drawn. Calls of active or inactive are those of the source.",
  "data": [
    {"smiles": "CCCCC1=CC2=CC(=O)C(C)(OC(=O)CC)C(=O)C2=CN1Cc1ccc(OC)cc1", "note": "(configuration not stated)", "values": [
      {"measurement": "IC50", "setting": "[1]", "value": "> 100 µM (active)"}
    ]},
    {"smiles": "O=C(O)C(Cc1ccccc1)N1C(=O)c2c(Cl)c(Cl)c(Cl)c(Cl)c2C1=O", "note": "(configuration not stated)", "values": [
      {"measurement": "EC50", "setting": "[2]", "value": "37.1 µM (active)"},
      {"measurement": "IC50", "setting": "[1]", "value": "39.7 µM (active)"}
    ]},
    {"smiles": "COc1ccc(CN(C)C(=O)c2cc(S(=O)(=O)NCc3ccccc3)ccc2C)c(OC)c1", "values": [
      {"measurement": "IC50", "setting": "[3]", "value": "> 100 µM (inactive)"}
    ]},
    {"smiles": "C#C[C@]1(O)CC[C@H]2[C@@H]3CCC4=Cc5oncc5CC4(C)[C@H]3CCC21C", "note": "(some centres not stated)", "values": [
      {"measurement": "AC50", "setting": "[4]", "value": "1.58 µM (inconclusive)"}
    ]},
    {"smiles": "CCn1cnc2c(Nc3cccc(Cl)c3)nc(N[C@@H]3CCCC[C@@H]3N)nc21", "values": [
      {"measurement": "AC50", "setting": "[4]", "value": "17.8 µM (inconclusive)"}
    ]},
    {"smiles": "CCOc1cc(/C=C2/C(=O)N(c3ccccc3)N=C2C)ccc1OC(=O)c1ccco1", "values": [
      {"measurement": "AC50", "setting": "[5]", "value": "25.1 µM (inconclusive)"},
      {"measurement": "AC50", "setting": "[6]", "value": "2.68 µM (active)"},
      {"measurement": "IC50", "setting": "[7]", "value": "119 µM (inactive)"},
      {"measurement": "EC50", "setting": "[8]", "value": "1.64 µM (active)"}
    ]},
    {"smiles": "O=[N+]([O-])c1ccccc1N/N=C\\c1ccccc1Cl", "values": [
      {"measurement": "EC50", "setting": "[9]", "value": "> 150 µM (not active)"},
      {"measurement": "EC50", "setting": "[10]", "value": "103 µM (active)"},
      {"measurement": "EC50", "setting": "[11]", "value": "> 133 µM (inactive)"},
      {"measurement": "EC50", "setting": "[12]", "value": "> 150 µM (not active)"},
      {"measurement": "EC50", "setting": "[13]", "value": "29.8 µM (inconclusive)"}
    ]},
    {"smiles": "C[C@H](N)CN1CCc2ccc(Br)cc21", "values": [
      {"measurement": "AC50", "setting": "[4]", "value": "20 µM (inconclusive)"}
    ]},
    {"smiles": "COC(=O)[C@H]1[C@H]2C[C@H]3c4[nH]c5ccccc5c4CCN3C[C@H]2CC[C@@H]1O", "note": "[RAUWOLSCINE HYDROCHLORIDE]", "values": [
      {"measurement": "AC50", "setting": "[4]", "value": "25.1 µM (inconclusive)"}
    ]}
  ]
}
